Source: patent publication US20180194762A1 (Pharmacyclics LLC, priority 2017, published 2018)
Read-outs that look alike come from different tables or passages of the source.

Columns and labels:
Type in all cases: biochemical
[1] = biological target: T1, panel of kinases (Homo sapiens, UniProt P51813); assay: Inhibition of a panel of kinases (in vitro HotSpot kinase assay, 33P-ATP, 1 μM ATP), other kinases; conditions: BMX wild-type, read-out: BMX-WT IC50
T1 sequence (P51813 1-675): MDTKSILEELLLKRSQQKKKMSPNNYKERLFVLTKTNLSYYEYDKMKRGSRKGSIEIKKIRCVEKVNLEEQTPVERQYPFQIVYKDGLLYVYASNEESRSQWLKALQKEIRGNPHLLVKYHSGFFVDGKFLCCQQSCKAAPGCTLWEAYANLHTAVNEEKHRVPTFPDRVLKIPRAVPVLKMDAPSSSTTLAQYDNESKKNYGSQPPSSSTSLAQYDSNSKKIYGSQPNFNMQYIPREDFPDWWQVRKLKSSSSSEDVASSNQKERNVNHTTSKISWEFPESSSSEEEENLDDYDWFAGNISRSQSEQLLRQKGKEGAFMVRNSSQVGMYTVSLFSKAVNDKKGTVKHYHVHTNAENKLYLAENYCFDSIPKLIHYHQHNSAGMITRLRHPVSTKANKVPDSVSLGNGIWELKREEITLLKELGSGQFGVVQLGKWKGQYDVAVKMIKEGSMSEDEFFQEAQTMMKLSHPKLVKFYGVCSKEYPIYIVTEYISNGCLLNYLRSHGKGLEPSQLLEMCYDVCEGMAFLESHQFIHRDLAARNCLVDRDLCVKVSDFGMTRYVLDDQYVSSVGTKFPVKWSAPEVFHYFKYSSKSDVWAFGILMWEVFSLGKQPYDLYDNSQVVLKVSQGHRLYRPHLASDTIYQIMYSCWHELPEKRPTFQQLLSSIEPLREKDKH
Summary of the method: (§1)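 At 1 μM ATP spiked with 33P-ATP, substrate phosphorylation by the purified enzymes gives the extent of inhibition.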

[2] = biological target: T2, Btk (Homo sapiens, UniProt Q06187); assay: Btk in vitro inhibitory activity (one of Method A TR-FRET, Method B electrophoretic mobility shift, Method C radiometric filter binding)
T2 construct: purified from insect cells as a full-length construct containing a N-terminal 6X-His tag; His6 (N); made in house; host or cells: insect cells (Method C)
T2 sequence (Q06187 whole entry): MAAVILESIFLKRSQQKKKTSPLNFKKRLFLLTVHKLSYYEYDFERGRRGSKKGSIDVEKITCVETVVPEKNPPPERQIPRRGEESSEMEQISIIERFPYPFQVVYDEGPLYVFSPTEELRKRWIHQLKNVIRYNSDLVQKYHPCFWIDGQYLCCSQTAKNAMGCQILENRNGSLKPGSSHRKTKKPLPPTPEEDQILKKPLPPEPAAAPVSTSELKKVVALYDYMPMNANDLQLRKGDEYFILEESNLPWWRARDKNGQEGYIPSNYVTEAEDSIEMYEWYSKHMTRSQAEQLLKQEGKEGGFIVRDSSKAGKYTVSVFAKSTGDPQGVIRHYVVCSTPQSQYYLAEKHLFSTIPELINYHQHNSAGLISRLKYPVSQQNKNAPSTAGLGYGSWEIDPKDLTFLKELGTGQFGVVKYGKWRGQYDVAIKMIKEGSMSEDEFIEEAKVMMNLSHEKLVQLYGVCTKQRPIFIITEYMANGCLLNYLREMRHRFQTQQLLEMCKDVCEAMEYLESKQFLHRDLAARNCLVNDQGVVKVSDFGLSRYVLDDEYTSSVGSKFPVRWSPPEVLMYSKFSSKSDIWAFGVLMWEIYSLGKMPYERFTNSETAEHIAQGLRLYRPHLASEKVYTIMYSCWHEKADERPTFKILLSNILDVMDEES
Summary of the method: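 Three alternative formats were used. A radiometric filter-binding read used 8 nM full-length His-BTK with 0.2 mg/mL poly(Glu-Tyr) 4:1 (C); microfluidic separation of 1 μM FAM-peptide by 1 nM BTK gave IC50 from 12-point curves (B); TR-FRET at Km ATP, 0.5 nM Btk, gave Ki(app)-derived IC50 (A).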

[3] = biological target: T3, TEC (Homo sapiens, UniProt P42680); assay: Inhibition of a panel of kinases (in vitro HotSpot kinase assay, 33P-ATP, 1 μM ATP); conditions: for IC50: HotSpot kinase assay, 1 μM ATP; for TEC/Btk: ratio of TEC IC50 to Btk IC50 (selectivity)
T3 sequence (P42680 1-631): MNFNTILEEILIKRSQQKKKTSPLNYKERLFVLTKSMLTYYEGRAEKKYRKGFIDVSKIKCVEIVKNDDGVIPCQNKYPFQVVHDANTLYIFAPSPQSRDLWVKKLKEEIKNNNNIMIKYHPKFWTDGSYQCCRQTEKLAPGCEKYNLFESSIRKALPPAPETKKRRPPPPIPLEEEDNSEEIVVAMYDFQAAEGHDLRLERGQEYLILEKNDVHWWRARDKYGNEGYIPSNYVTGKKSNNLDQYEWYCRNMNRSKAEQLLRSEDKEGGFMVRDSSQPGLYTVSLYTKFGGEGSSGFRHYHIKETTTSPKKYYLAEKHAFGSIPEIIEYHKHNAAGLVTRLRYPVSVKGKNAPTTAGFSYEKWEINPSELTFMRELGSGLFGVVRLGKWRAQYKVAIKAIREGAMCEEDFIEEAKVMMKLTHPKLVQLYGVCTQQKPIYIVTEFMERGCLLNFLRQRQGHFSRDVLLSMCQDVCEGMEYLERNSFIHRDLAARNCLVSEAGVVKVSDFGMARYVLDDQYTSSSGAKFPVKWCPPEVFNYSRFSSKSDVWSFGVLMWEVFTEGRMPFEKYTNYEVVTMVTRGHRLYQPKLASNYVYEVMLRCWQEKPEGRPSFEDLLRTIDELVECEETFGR
Summary of the method: as §1

[4] = wild-type Btk, read-out: Btk-WT IC50
[5] = method is one of A, B or C, not stated which, read-out: IC50 values against Btk

Row | SMILES | IC50 [1] [nM] | IC50 [2, 4] [nM] | IC50 [3] [nM] | TEC/Btk [3] | IC50 [2, 5] [nM]
1 | CC(C)(C)c1cc(C(=O)NCc2ccc(-c3ccnc4[nH]nc(N[C@@H]5CCNC5)c34)cc2F)no1 [Example 63, 5-tert-butyl-N-{[2-fluoro-4-(3-{[(3R)-pyrrolidin-3-yl]amino}-1H-pyrazolo[3,4-b]pyridin-4-yl)phenyl]methyl}-1,2-oxazole-3-carboxamide] | > 10000 | 10.2 | 7860 | 771 | –
2 | CC(C)(C)n1ccc(C(=O)NCc2ccc(-c3ccnc4[nH]nc(N[C@@H]5CCNC5)c34)cc2F)n1 [Example 64, 1-tert-butyl-N-{[2-fluoro-4-(3-{[(3R)-pyrrolidin-3-yl]amino}-1H-pyrazolo[3,4-b]pyridin-4-yl)phenyl]methyl}-1H-pyrazole-3-carboxamide] | > 10000 | 167 | > 10000 | >100 | –
3 | C=CC(=O)N1CC[C@@H](Nc2n[nH]c3nccc(-c4ccc(CNC(=O)c5cc(C(C)(C)C)on5)c(F)c4)c23)C1 [Example 65, 5-tert-butyl-N-{[2-fluoro-4-(3-{[(3R)-1-(prop-2-enoyl)pyrrolidin-3-yl]amino}-1H-pyrazolo [3,4-b]pyridin-4-yl)phenyl]methyl}-1,2-oxazole-3-carboxamide] | 78 | 0.0792 | 42 | 529 | < 10
4 | C=CC(=O)N1CC[C@@H](Nc2n[nH]c3nccc(-c4ccc(CNC(=O)c5ccn(C(C)(C)C)n5)c(F)c4)c23)C1 [Example 66, 1-tert-butyl-N-{[2-fluoro-4-(3-{[(3R)-1-(prop-2-enoyl)pyrrolidin-3-yl]amino}-1H-pyrazolo[3,4-b]pyridin-4-yl)phenyl]methyl}-1H-pyrazole-3-carboxamide] | 219 | 0.42 | 403 | 959 | < 10
5 | C[C@H]1CC[C@@H](Nc2n[nH]c3nccc(-c4ccc(CNC(=O)c5noc(C(C)(C)C)n5)c(F)c4)c23)CN1C(=O)N(C)C [Example 67, (2S,5R)-5-{[4-(4-{[(5-tert-butyl-1,2,4-oxadiazol-3-yl)formamido]methyl}-3-fluorophenyl)-1H-pyrazolo[3,4-b]pyridin-3-yl]amino}-N,N,2-trimethylpiperidine-1-carboxamide] | 137 | 0.359 | 121 | 337 | < 10
6 | C[C@H]1CC[C@@H](Nc2n[nH]c3nccc(-c4ccc(CNC(=O)c5noc(C(C)(C)C)n5)c(F)c4)c23)CN1C=O [Example 68, 5-tert-butyl-N-{[2-fluoro-4-(3-{[(3R,6S)-1-formyl-6-methylpiperidin-3-yl]amino}-1H-pyrazolo[3,4-b]pyridin-4-yl)phenyl]methyl}-1,2,4-oxadiazole-3-carboxamide] | 541 | 0.601 | 258 | 429 | < 10
7 | CC(C)(C)c1nc(C(=O)NCc2ccc(-c3ccnc4[nH]nc(N[C@@H]5CCCNC5)c34)cc2F)no1 [Example 69, 5-tert-butyl-N-{[2-fluoro-4-(3-{[(3R)-piperidin-3-yl]amino}-1H-pyrazolo[3,4-b]pyridin-4-yl)phenyl]methyl}-1,2,4-oxadiazole-3-carboxamide] | 6970 | 10.4 | 4510 | 434 | –
8 | CC(C)(C)c1nc(C(=O)NC2(c3ccc(-c4ccnc5[nH]nc(N[C@@H]6CCCNC6)c45)cc3)CC2)no1 [Example 70, 5-tert-butyl-N-{1-[4-(3-{[(3R)-piperidin-3-yl]amino}-1H-pyrazolo[3,4-b]pyridin-4-yl)phenyl]cyclopropyl}-1,2,4-oxaidazole-3-carboxamide] | > 10000 | 180 | > 10000 | >100 | –
9 | CC(C)(C)c1noc(C(=O)NC2(c3ccc(-c4ccnc5[nH]nc(N[C@@H]6CCNC6)c45)cc3)CC2)n1 [Example 71, 3-tert-butyl-N-{1-[4-(3-{[(3R)-pyrrolidin-3-yl]amino}-1H-pyrazolo[3,4-b]pyridin-4-yl)phenyl]cyclopropyl}-1,2,4-oxadiazole-5-carboxamide] | > 10000 | 42.2 | > 10000 | >100 | –
10 | C[C@H](NC(=O)c1noc(C(C)(C)C)n1)c1ccc(-c2ccnc3[nH]nc(N[C@@H]4CCNC4)c23)cc1 [Example 72, 5-tert-butyl-N-[(1S)-1-[4-(3-{[(3R)-pyrrolidin-3-yl]amino}-1H-pyrazolo[3,4-b]pyridin-4-yl)phenyl]ethyl]-1,2,4-oxadiazole-3-carboxamide] | > 10000 | > 10000 | > 10000 | >100 | –
11 | C[C@@H](NC(=O)c1noc(C(C)(C)C)n1)c1ccc(-c2ccnc3[nH]nc(N[C@@H]4CCNC4)c23)cc1 [Example 73, 5-tert-butyl-N-[(1R)-1-[4-(3-{[(3R)-pyrrolidin-3-yl]amino}-1H-pyrazolo[3,4-b]pyridin-4-yl)phenyl]ethyl]-1,2,4-oxadiazole-3-carboxamide] | > 10000 | 37.9 | > 10000 | >100 | –
12 | CC(C)(C)c1nc(C(=O)NCc2cc(F)cc(-c3ccnc4[nH]nc(N[C@@H]5CCNC5)c34)c2)no1 [Example 74, 5-tert-butyl-N-{[3-fluoro-5-(3-{[(3R)-pyrrolidin-3-yl]amino}-1H-pyrazolo[3,4-b]pyridin-4-yl)phenyl]methyl}-1,2,4-oxadiazole-3-carboxamide] | > 10000 | > 10000 | > 10000 | – | –
13 | CC(C)(C)c1ccc(C(=O)NCc2cc(F)cc(-c3ccnc4[nH]nc(N[C@@H]5CCNC5)c34)c2)cc1 [Example 75, 4-tert-butyl-N-{[3-fluoro-5-(3-{[(3R)-pyrrolidin-3-yl]amino}-1H-pyrazolo[3,4-b]pyridin-4-yl)phenyl]methyl}benzamide] | > 10000 | > 10000 | > 10000 | – | –
14 | CC(C)(C)n1cc(C(=O)NCc2ccc(-c3ccnc4[nH]nc(N[C@@H]5CCNC5)c34)cc2F)cn1 [Example 76, 1-tert-butyl-N-{[2-fluoro-4-(3-{[(3R)-pyrrolidin-3-yl]amino}-1H-pyrazolo[3,4-b]pyridin-4-yl)phenyl]methyl}-1H-pyrazole-4-carboxamide] | 8360 | 51.1 | 8720 | 171 | –
15 | CC(C)(C)c1nnc(C(=O)NCc2ccc(-c3ccnc4[nH]nc(N[C@@H]5CCNC5)c34)cc2F)o1 [Example 77, 5-tert-butyl-N-{[2-fluoro-4-(3-{[(3R)-pyrrolidin-3-yl]amino}-1H-pyrazolo[3,4-b]pyridin-4-yl)phenyl]methyl}-1,3,4-oxadiazole-2-carboxamide] | > 10000 | 159 | > 10000 | >100 | –
16 | CC(C)(C)c1n[nH]c(C(=O)NCc2ccc(-c3ccnc4[nH]nc(N[C@@H]5CCNC5)c34)cc2F)n1 [Example 78, 3-tert-butyl-N-{[2-fluoro-4-(3-{[(3R)-pyrrolidin-3-yl]amino}-1H-pyrazolo[3,4-b]pyridin-4-yl)phenyl]methyl}-1H-1,2,4-triazole-5-carboxamide] | > 10000 | > 10000 | > 10000 | – | –
